In PubChem BioAssay AID2305 (GlaxoSmithKline (GSK), 2010):

These compounds were tested on P. falciparum 3D7 growth, pLDH absorbance (assay: blood-stage malaria parasite growth potency – strain 3D7, dose response (AID 2305)).

Row | SMILES | IC50 [µM]
1 | CC(=O)c1ccc(NC(=O)Nc2ccc3nccc(N4CCN(C)CC4)c3c2)cc1 | 0.43
2 | CC(C)[C@H](NC(=O)c1c(CN2CCC(N3CCCCC3)CC2)c(-c2ccccc2)nc2cc(O)ccc12)c1ccccc1 | 0.74
3 | CCN(CC)S(=O)(=O)c1ccc(Cl)c(C(=O)Nc2ccc3nc(C)sc3c2)c1 | 0.8
4 | COc1ccc2nccc(N3CCC(CCNCc4ccc5c(n4)NC(=O)CS5)CC3)c2n1 | 0.23
5 | COc1c(CN2CCOCC2)cccc1-c1cc2c(-c3ccc(C(=O)O)c(C(C)C)c3)ccnc2[nH]1 | 0.74
6 | CC(C)CNCc1cccc(-c2ccccc2CNC2CCN(Cc3ccccc3)CC2)c1 | 0.58
7 | CCN(CCC1(c2ccc(Cl)c(Cl)c2)CN(C(=O)c2cc(OC)c(OC)c(OC)c2)CCO1)[C@@H]1C[C@@H]2c3ccccc3C[C@@H]21 (stereo partly drawn) | 0.43
8 | Cc1c2c(nn1-c1ccccc1)C(c1ccccc1)N(c1ccccc1)C2=O (stereo not drawn) | 0.15
9 | Nc1cc(C=Cc2ccc(O)cc2)nc2ccccc12 | 0.99
10 | Cc1nc(N)nc(N)c1CCCOc1ccccc1Cl | 0.22
11 | Cc1cc(CNCC(CCNc2cc(=O)c3ccccc3[nH]2)NCc2cc(Br)cc(Br)c2)oc1C (stereo not drawn) | 0.89
12 | C[C@@H](Oc1cc(-n2cnc3ccc(NC(=O)CCN4CCCCC4)cc32)sc1C(N)=O)c1ccccc1Cl | 0.99
13 | CN1CCCc2ccc(NC(=O)Nc3ccc(-c4ccccc4)cc3)cc2C1 | 0.38
14 | CC(C)(C)c1ccc(O)c(CNC2CCCCC2)c1 | 0.26
15 | CC1(C)N=C(N)N=C(N)N1c1ccc(Br)cc1 | 0.01
16 | CN(C)CCNC(=O)N1CCCN(c2ncnc3cc(-c4ccccc4)sc23)CC1 | 0.79
17 | Cc1cc(N[C@@H](Cc2ccccc2)C(=O)NCc2cccc(F)c2)nc(NCCc2cccs2)n1 | 0.62
18 | COc1cc2nc(N3CCC(CNC(=O)c4ccc(-c5ccc(-c6noc(C)n6)cc5)cc4)CC3)nc(N)c2cc1OC | 0.14
19 | O=C(c1cc(-c2cccs2)[nH]n1)N1CCN(S(=O)(=O)c2ccc(Br)cc2)CC1 | 0.36

Row | SMILES | IC50 [µM]
20 | COc1cc(Cc2cnc(N)nc2N)cc(OCCCS(=O)(=O)O)c1OC | 1.17
21 | O=C(NCCCCN1CCC(c2ccc3c(c2OCC(O)c2ccc(Cl)cc2)CCCC3)CC1)c1ccc(-c2ccc(C(F)(F)F)cc2)cc1 (stereo not drawn) | 1.04
22 | O=C(Nc1cccc(OC2CCN(Cc3ccccc3)CC2)c1)c1ccc(Cl)c(Cl)c1 | 0.72
23 | Nc1ncc(-c2cn[nH]c2)cc1-c1nc2ccc(Cl)cc2[nH]1 | 0.8
24 | Oc1ccc(CCNc2nc(NCc3ccccc3-c3ccc(C(F)(F)F)cc3)nc(NC3CCNCC3)n2)cc1 | 0.92
25 | CNCCNc1nccc(N2CCc3ncnc(Nc4ccc(OCc5cccc(F)c5)c(Cl)c4)c3C2)n1 | 0.2
26 | CCOc1ccc(C2CCN(CCCCNC(=O)c3ccc(NC(=O)c4ccc(Cl)cc4)cc3)CC2)c(CC)c1 | 0.79
27 | OC1CCCN(Cc2cccc(-c3ccc(-c4nc5ccc(C(F)(F)F)cc5[nH]4)cc3)c2)C1 (stereo not drawn) | 0.69
28 | COc1ccc(-c2cc(C(F)(F)F)n3ncc(C(=O)Nc4cc(C)ccc4O)c3n2)cc1OC | 0.13
29 | O=C(/C=C/c1ccc(Cl)c(Cl)c1)NCCCCCN1CCCN(C(=O)Nc2ccc(Cl)c(Cl)c2)CC1 | 0.86
30 | O=C(NC1CCC(CN2CCC(c3c[nH]c4ccccc34)CC2)CC1)c1[nH]c(=O)[nH]c(=O)c1F (stereo not drawn) | 0.8
31 | O=C(Nc1cccc(-c2cccc(-c3nc4ccc(F)cc4[nH]3)c2)c1)c1ccncc1 | 0.51
32 | NCC1CCCN1Cc1ccc(-c2cccc(-c3nc4ccc(C(F)(F)F)cc4[nH]3)c2)cc1 (stereo not drawn) | 0.83
33 | COc1ccc2nccc(CCC3(O)CCC(NCc4cc5c(cc4F)SCC(=O)N5)CC3)c2c1 (stereo not drawn) | 0.67
34 | CC(C)CC(=O)N1CCNC[C@@H]1C(=O)NC1CC1 | 1.09
35 | CCOC(=O)c1c(-c2ccccc2)[nH]c2c(sc3ccccc32)c1=O | 0.37
36 | FC(F)c1nc2ccccc2n1-c1nc(N2CCOCC2)nc(N2CCOCC2)n1 | 0.76
37 | Nc1cccc(CNCc2ccc(-c3cccc(-c4nc5ccccc5[nH]4)c3)cc2)c1 | 0.71
38 | CO/C(=C\C=C\c1cc2cc(Cl)c(Cl)cc2[nH]1)C(=O)NC1CCN(CCNc2ccccc2)CC1 | 0.26
